Assay results as given in publication PMC9188596, “Structural basis of resistance to herbicides that target acetohydroxyacid synthase” (Nature Communications, 2022).
Several values for one entry are separate records, joined by “and”; a condition that tells them apart may be missing. Equal entries are not always repeated. Entries after “also recorded” stand apart in the source; their conditions may differ. Where two headings read alike, the source gives them in different places.

Assays:
AtAHAS P197L mutant [1] = biological target: T1, AtAHAS P197L mutant (Arabidopsis thaliana, UniProt P17597, P197L); experiment: biochemical
Protocol: (§1) Standard assays were performed using a continuous spectrophotometric method measuring the disappearance of pyruvate. The standard buffer contained 50 mM potassium phosphate, pH 7.2, 1 mM ThDP, 10 mM MgCl2, and 10 µM FAD. The concentration of pyruvate was in the range 100–160 mM, as described in the text, methods, or figure legends.
(§2) Supplementary Figure 6. Measurement of the Ki values for WT AtAHAS and the mutants.
(§3) The error bars represent the standard error of the mean of two independent replicates. [I] =
(§4) inhibitor concentration. Source data are provided with this paper.
(§5) (1 picture or pasted object on this page, not shown here)

AtAHAS P197T mutant [2] = biological target: T2, AtAHAS P197T mutant (Arabidopsis thaliana, UniProt P17597, P197T); experiment: biochemical
Protocol: as §1, §2, §3, §4, §5

AtAHAS S653T mutant [3] = biological target: T3, AtAHAS S653T mutant (Arabidopsis thaliana, UniProt P17597, S653T); experiment: biochemical
Protocol: as §1, §2, §3, §4, §5

AtAHAS W574L mutant [4] = biological target: T4, AtAHAS W574L mutant (Arabidopsis thaliana, UniProt P17597, W574L); experiment: biochemical; settings: for increase in Ki / loss of affinity compared to WT: W574L vs WT
Protocol: as §1, §2, §3, §4, §5

WT AtAHAS [5] = biological target: T5, WT AtAHAS (Arabidopsis thaliana, UniProt P17597); assay type: biochemical; settings: for k3 (rate of recovery) / kiapp (apparent rate of enzyme inactivation): 160 mM pyruvate, 30 °C, ± SEM; for k3, single progress curve (Supplementary Figure 8) / kiapp, single progress curve (Supplementary Figure 8): individual replicate of triplicate
Protocol: as §1
(§6) AtAHAS was assayed in the standard assay buffer containing 160 mM pyruvate, at 30 °C. For AtAHAS activation the progress curve corresponding to the lag-phase was fitted to Eq. (8) of Lonhienne et al.[14]. For the time dependent accumulative inhibition of AtAHAS the progress curves were fitted to Equation 9 of Lonhienne et al.[12].
(§7) Supplementary Figure 8. Measurement of the rate constants of accumulative inhibition for WT AtAHAS and its mutants. The progress curves were fitted to the equation of accumulative inhibition (Equation 7 2). The rate constants of enzyme inactivation ( kiapp) and enzyme recovery (k3) were measured in triplicate. Source data are provided with this paper.

AtAHAS P197L mutant [6] = biological target: T1, AtAHAS P197L mutant; assay type: biochemical; settings: for k3 (rate of recovery) / kiapp (apparent rate of enzyme inactivation): 160 mM pyruvate, 30 °C; for k3 (rate of recovery) / kiapp (apparent rate of enzyme inactivation) / kiapp/k3 (efficiency of accumulative inhibition): NAI = no accumulative inhibition detected; for k3, single progress curve (Supplementary Figure 8) / kiapp, single progress curve (Supplementary Figure 8): individual replicate of triplicate
Protocol: as §1, §6
as §7, with “paper. […]” for “paper.”

AtAHAS P197T mutant [7] = biological target: T2, AtAHAS P197T mutant; assay type: biochemical; settings: for k3 (rate of recovery) / kiapp (apparent rate of enzyme inactivation) / kiapp/k3 (efficiency of accumulative inhibition) / k3, single progress curve (Supplementary Figure 8) / kiapp, single progress curve (Supplementary Figure 8): P197T; for k3 (rate of recovery) / kiapp (apparent rate of enzyme inactivation): 160 mM pyruvate, 30 °C; for k3 (rate of recovery) / kiapp (apparent rate of enzyme inactivation) / kiapp/k3 (efficiency of accumulative inhibition): NAI = no accumulative inhibition detected; for k3, single progress curve (Supplementary Figure 8) / kiapp, single progress curve (Supplementary Figure 8): individual replicate of triplicate
Protocol: as §1, §6
as §7, with “paper. […]” for “paper.”

AtAHAS S653T mutant [8] = biological target: T3, AtAHAS S653T mutant; assay type: biochemical; settings: for kiapp/k3 (efficiency of accumulative inhibition) / k3 (rate of recovery) / kiapp (apparent rate of enzyme inactivation) / k3, single progress curve (Supplementary Figure 8) / kiapp, single progress curve (Supplementary Figure 8): S653T; for k3 (rate of recovery) / kiapp (apparent rate of enzyme inactivation): 160 mM pyruvate, 30 °C, ± SEM; for k3, single progress curve (Supplementary Figure 8) / kiapp, single progress curve (Supplementary Figure 8): individual replicate of triplicate
Protocol: as §1, §6
as §7, with “paper. […]” for “paper.”

AtAHAS W574L mutant [9] = biological target: T4, AtAHAS W574L mutant; assay type: biochemical; settings: for k3 (rate of recovery) / kiapp (apparent rate of enzyme inactivation): 160 mM pyruvate, 30 °C; for k3 (rate of recovery) / kiapp (apparent rate of enzyme inactivation) / kiapp/k3 (efficiency of accumulative inhibition): NAI = no accumulative inhibition detected
Protocol: as §1, §6
as §7, with “paper. […]” for “paper.”

WT AtAHAS [10] = biological target: T5, WT AtAHAS; settings: cited from earlier work
[11] = Ki (Supplementary Figure 6), P197L, fit of % activity remaining vs [I], two independent replicates
[12] = Ki, P197L mutant, ± standard error of the mean
[13] = Ki (Supplementary Figure 6), P197T, fit of % activity remaining vs [I], two independent replicates
[14] = Ki, P197T mutant, ± standard error of the mean
[15] = Ki, S653T mutant, ± standard error of the mean
[16] = Ki, W574L mutant, ± standard error of the mean
[17] = individual replicate of triplicate
[18] = ± standard error of the mean, ref Garcia et al.[13]

COc1cc(OC)nc(Oc2cccc(Oc3nc(OC)cc(OC)n3)c2C(=O)O)n1 [BS, bispyribac]
Ki (AtAHAS P197L mutant [1]; [11]): 0.115 ± 0.0134 µM
Ki (AtAHAS P197L mutant [1]; [12]): 0.115 ± 0.013 µM
loss of affinity (AtAHAS P197L mutant [1]; P197L vs WT): ~ 50%
Ki (AtAHAS P197T mutant [2]; [13]): 0.106 ± 0.00483 µM
Ki (AtAHAS P197T mutant [2]; [14]): 0.106 ± 0.0048 µM
increase in Ki / loss of affinity compared to WT (AtAHAS P197T mutant [2]; P197T vs WT): around three-fold
loss of affinity (AtAHAS P197T mutant [2]; P197T vs WT): ~ 50%
Ki (AtAHAS S653T mutant [3]; [15]): 0.09 ± 0.0131 µM
loss of affinity (AtAHAS S653T mutant [3]; S653T vs WT): ~ 50%
Ki (AtAHAS W574L mutant [4]; Ki (Supplementary Figure 6), W574L, fit of % activity remaining vs [I], two independent replicates): 6.11 ± 0.988 µM
Ki (AtAHAS W574L mutant [4]; [16]): 6.1 ± 1 µM
increase in Ki / loss of affinity compared to WT (AtAHAS W574L mutant [4]): 150 fold
kiapp/k3 (efficiency of accumulative inhibition) (WT AtAHAS [5]): 18
k3 (rate of recovery) (WT AtAHAS [5]): 0.018 ± 0.002 min⁻¹
kiapp (apparent rate of enzyme inactivation) (WT AtAHAS [5]): 0.32 ± 0.03 min⁻¹
k3, single progress curve (Supplementary Figure 8) (WT AtAHAS [5]): 0.022 min⁻¹ and 0.018 min⁻¹ and 0.014 min⁻¹
kiapp, single progress curve (Supplementary Figure 8) (WT AtAHAS [5]): 0.38 min⁻¹ and 0.28 min⁻¹ and 0.3 min⁻¹
k3 (rate of recovery) (AtAHAS P197L mutant [6]): 0.037 ± 0.003 min⁻¹
kiapp (apparent rate of enzyme inactivation) (AtAHAS P197L mutant [6]): 1.15 ± 0.09 min⁻¹
kiapp/k3 (efficiency of accumulative inhibition) (AtAHAS P197L mutant [6]): 31
k3, single progress curve (Supplementary Figure 8) (AtAHAS P197L mutant [6]): 0.043 min⁻¹ and 0.036 min⁻¹ and 0.032 min⁻¹
kiapp, single progress curve (Supplementary Figure 8) (AtAHAS P197L mutant [6]): 1.33 min⁻¹ and 1.1 min⁻¹ and 1.03 min⁻¹
k3 (rate of recovery) (AtAHAS P197T mutant [7]): 0.031 ± 0.004 min⁻¹
kiapp (apparent rate of enzyme inactivation) (AtAHAS P197T mutant [7]): 1.14 ± 0.11 min⁻¹
kiapp/k3 (efficiency of accumulative inhibition) (AtAHAS P197T mutant [7]): 37
k3, single progress curve (Supplementary Figure 8) (AtAHAS P197T mutant [7]): 0.035 min-1 (2×) and 0.023 min-1
kiapp, single progress curve (Supplementary Figure 8) (AtAHAS P197T mutant [7]): 1.09 min⁻¹ and 0.98 min⁻¹ and 1.34 min⁻¹
increase in efficiency of accumulative inhibition compared to WT (AtAHAS P197T mutant [7]; P197 mutant vs WT (kiapp/k3)): two-fold
kiapp/k3 (efficiency of accumulative inhibition) (AtAHAS S653T mutant [8]): 39
efficiency of accumulative inhibition (kiapp/k3) compared to WT (in words) (AtAHAS S653T mutant [8]; S653T vs WT): increased
k3 (rate of recovery) (AtAHAS S653T mutant [8]): 0.017 ± 0.001 min⁻¹
kiapp (apparent rate of enzyme inactivation) (AtAHAS S653T mutant [8]): 0.66 ± 0.04 min⁻¹
k3, single progress curve (Supplementary Figure 8) (AtAHAS S653T mutant [8]): 0.018 min⁻¹ and 0.019 min⁻¹ and 0.015 min⁻¹
kiapp, single progress curve (Supplementary Figure 8) (AtAHAS S653T mutant [8]): 0.59 min⁻¹ and 0.71 min⁻¹ and 0.69 min⁻¹
accumulative inhibition (in words) (AtAHAS W574L mutant [9]): irreversible; also recorded: still can promote accumulative inhibition
k3 (rate of recovery) (AtAHAS W574L mutant [9]): <1e-12 min⁻¹
kiapp (apparent rate of enzyme inactivation) (AtAHAS W574L mutant [9]): 0.03 ± 0.006 min⁻¹
kiapp/k3 (efficiency of accumulative inhibition) (AtAHAS W574L mutant [9]): >10^11
k3, single progress curve (Supplementary Figure 8) (AtAHAS W574L mutant [9]; [17]): ~ 0 min-1
kiapp, single progress curve (Supplementary Figure 8) (AtAHAS W574L mutant [9]; [17]): 0.043 min⁻¹ and 0.026 min⁻¹ and 0.025 min⁻¹
Ki (WT AtAHAS [10]; [18]): 0.041 ± 0.006 µM

CC(C)C1(C)N=C(c2nc3ccccc3cc2C(=O)O)NC1=O (stereo not shown) [IQ, imazaquin]
Ki (AtAHAS P197L mutant [1]; [11]): 13.8 ± 1.14 µM
Ki (AtAHAS P197L mutant [1]; [12]): 13.8 ± 1.1 µM
Ki (AtAHAS P197T mutant [2]; [13]): 12.4 ± 1.83 µM
Ki (AtAHAS P197T mutant [2]; [14]): 12.4 ± 1.8 µM
Ki (AtAHAS S653T mutant [3]; Ki (Supplementary Figure 6), S653T, fit of % activity remaining vs [I], two independent replicates): 240 ± 25.5 µM
Ki (AtAHAS S653T mutant [3]; [15]): 240 ± 26 µM
increase in Ki compared to WT (AtAHAS S653T mutant [3]; S653T vs WT): more than 10 fold
Ki (AtAHAS W574L mutant [4]; [16]): 704 ± 58.5 µM
increase in Ki / loss of affinity compared to WT (AtAHAS W574L mutant [4]): 38 fold
accumulative inhibition (in words) (WT AtAHAS [5]): irreversible
kiapp/k3 (efficiency of accumulative inhibition) (WT AtAHAS [5]): >10^11
k3 (rate of recovery) (WT AtAHAS [5]): <1e-12 min⁻¹
kiapp (apparent rate of enzyme inactivation) (WT AtAHAS [5]): 0.86 ± 0.03 min⁻¹
k3, single progress curve (Supplementary Figure 8) (WT AtAHAS [5]): ~ 0 min-1
kiapp, single progress curve (Supplementary Figure 8) (WT AtAHAS [5]): 0.86 min⁻¹ and 0.92 min⁻¹ and 0.83 min⁻¹
k3 (rate of recovery) (AtAHAS P197L mutant [6]): <1e-12 min⁻¹
kiapp (apparent rate of enzyme inactivation) (AtAHAS P197L mutant [6]): 0.26 ± 0.008 min⁻¹
kiapp/k3 (efficiency of accumulative inhibition) (AtAHAS P197L mutant [6]): >10^11
k3, single progress curve (Supplementary Figure 8) (AtAHAS P197L mutant [6]): ~ 0 min-1
kiapp, single progress curve (Supplementary Figure 8) (AtAHAS P197L mutant [6]): 0.25 min-1 (2×) and 0.26 min-1
k3 (rate of recovery) (AtAHAS P197T mutant [7]): <1e-12 min⁻¹
kiapp (apparent rate of enzyme inactivation) (AtAHAS P197T mutant [7]): 0.27 ± 0.012 min⁻¹
kiapp/k3 (efficiency of accumulative inhibition) (AtAHAS P197T mutant [7]): >10^11
k3, single progress curve (Supplementary Figure 8) (AtAHAS P197T mutant [7]): ~ 0 min-1
kiapp, single progress curve (Supplementary Figure 8) (AtAHAS P197T mutant [7]): 0.29 min-1 and 0.28 min-1 (2×)
kiapp/k3 (efficiency of accumulative inhibition) (AtAHAS S653T mutant [8]): >10^11
k3 (rate of recovery) (AtAHAS S653T mutant [8]): <1e-12 min⁻¹
kiapp (apparent rate of enzyme inactivation) (AtAHAS S653T mutant [8]): 0.37 ± 0.017 min⁻¹
k3, single progress curve (Supplementary Figure 8) (AtAHAS S653T mutant [8]): ~ 0 min-1
kiapp, single progress curve (Supplementary Figure 8) (AtAHAS S653T mutant [8]): 0.34 min⁻¹ and 0.38 min⁻¹ and 0.39 min⁻¹
k3 (rate of recovery) (AtAHAS W574L mutant [9]): NAI
kiapp (apparent rate of enzyme inactivation) (AtAHAS W574L mutant [9]): NAI
kiapp/k3 (efficiency of accumulative inhibition) (AtAHAS W574L mutant [9]): NAI
Ki (WT AtAHAS [10]): 18 µM
Ki (WT AtAHAS [10]; [18]): 18.5 ± 2 µM
